Assay results published in patent US20230322767A1, “ARYL SUBSTITUTED PYRROLO-PYRIDINONES AND THERAPEUTIC USES THEREOF” (Bayer Aktiengesellschaft, priority 2020, published 2023).
pIC50: −log10 of the molar value. Where two headings read alike, the source gives them in different places.

Experiments:
Assay type in all cases: biochemical
CSNK1D = CSNK1D (Homo sapiens (Human), UniProt P48730); assay: CSNK1D Assay (ADP-Glo, 1 μM ATP); details: median, read-out: CSNK1D IC50 [mol/l] (median)
Method in brief: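 Enzyme preincubated with compound 15 min at 22° C in 50 mM HEPES pH 7.5 buffer with 10 mM MgCl2, 1 mM DTT; kinase reaction run at 1 μM ATP with biotinylated peptide substrate. ADP formed was detected by ADP-Glo luminescence as the measure of activity.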

[1] = molecular target: wild-type Epidermal Growth Factor Receptor (EGFR) (Homo sapiens (Human), UniProt P00533); assay: WT-EGFR Kinase Assay (TR-FRET, 2 mM ATP)
Chain of wild-type Epidermal Growth Factor Receptor (EGFR) (P00533 669-1210): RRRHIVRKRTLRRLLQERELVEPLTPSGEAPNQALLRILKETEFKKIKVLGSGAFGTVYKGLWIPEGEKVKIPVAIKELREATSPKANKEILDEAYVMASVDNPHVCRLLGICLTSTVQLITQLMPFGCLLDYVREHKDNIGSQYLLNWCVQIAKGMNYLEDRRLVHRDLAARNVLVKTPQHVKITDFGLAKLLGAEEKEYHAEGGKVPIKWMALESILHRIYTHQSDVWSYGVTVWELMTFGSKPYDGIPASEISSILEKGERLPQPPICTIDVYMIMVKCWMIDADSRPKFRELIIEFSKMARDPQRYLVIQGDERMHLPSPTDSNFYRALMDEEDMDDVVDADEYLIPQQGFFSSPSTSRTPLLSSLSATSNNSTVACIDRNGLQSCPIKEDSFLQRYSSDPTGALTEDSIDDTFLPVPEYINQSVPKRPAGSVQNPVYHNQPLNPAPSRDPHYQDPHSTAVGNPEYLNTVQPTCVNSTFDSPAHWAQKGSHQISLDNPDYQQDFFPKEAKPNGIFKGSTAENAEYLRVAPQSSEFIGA
Method in brief: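 TR-FRET read-out of biotinylated peptide phosphorylation, taken as the 665/622 nm ratio after EDTA stop and 1 h detection at 22° C. Kinase: GST fusion of human EGFR aa R669–A1210, given a 15 min compound pre-binding step; reaction run at 2 mM ATP.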

CSNK1A1 = CSNK1A1 (Homo sapiens (Human), UniProt P48729); assay: CSNK1A1 Assay 2 (ADP-Glo, 1 μM ATP); details: median, read-out: CSNK1A1 Assay 2 IC50 [mol/l] (median)
Chain of CSNK1A1 (P48729 whole entry): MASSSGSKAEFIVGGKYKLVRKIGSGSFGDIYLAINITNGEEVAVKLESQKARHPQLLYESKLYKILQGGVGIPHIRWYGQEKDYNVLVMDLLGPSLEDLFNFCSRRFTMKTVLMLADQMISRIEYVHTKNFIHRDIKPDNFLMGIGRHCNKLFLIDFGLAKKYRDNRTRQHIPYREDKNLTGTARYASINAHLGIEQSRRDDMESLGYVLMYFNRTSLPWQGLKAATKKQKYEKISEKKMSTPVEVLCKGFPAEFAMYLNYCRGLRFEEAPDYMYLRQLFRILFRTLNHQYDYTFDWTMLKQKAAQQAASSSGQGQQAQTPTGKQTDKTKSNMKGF
Method in brief: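 ADP-Glo luminescence, taken as ADP formed, reports activity against biotinylated phospho-peptide substrate biotin-Ahx-KRRRAL-pS-VASLPGL at 1 μM ATP.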

[2] = EGFR Wildtyp 2 mM ATP IC50 [mol/l] (median), median or individual measurements
[3] = read-out: EGFR Wildtyp 2 mM ATP IC50 [mol/l] (median), median or individual measurements

Chain of CSNK1D (P48730 whole entry): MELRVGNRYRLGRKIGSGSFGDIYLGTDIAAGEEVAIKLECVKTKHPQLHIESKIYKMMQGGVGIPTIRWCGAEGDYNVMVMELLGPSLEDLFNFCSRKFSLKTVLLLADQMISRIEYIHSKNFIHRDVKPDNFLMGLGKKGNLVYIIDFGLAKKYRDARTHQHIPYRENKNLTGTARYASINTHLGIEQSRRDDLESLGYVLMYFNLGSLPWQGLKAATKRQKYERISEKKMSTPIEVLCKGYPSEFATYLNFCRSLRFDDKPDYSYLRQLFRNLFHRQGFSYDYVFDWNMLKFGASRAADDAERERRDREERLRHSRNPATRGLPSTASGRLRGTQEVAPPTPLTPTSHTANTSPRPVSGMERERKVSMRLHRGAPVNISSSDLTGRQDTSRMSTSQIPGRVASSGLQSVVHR

| SMILES | pIC50 (CSNK1D) | pIC50 [1, 2] | pIC50 (CSNK1A1) | pIC50 [1, 3] |
| --- | --- | --- | --- | --- |
| O=C(Nc1cc(-c2[nH]c3c(Cl)cn(C4CC4)c(=O)c3c2-c2ccc(F)cc2)ccn1)C(CC(F)F)c1ccc(F)cc1 (racemic) [Example 161, (2RS)—N-{4-[7-chloro-5-cyclopropyl-3-(4-fluorophenyl)-4-oxo-4,5-dihydro-1H-pyrrolo[3,2-c]pyridin-2-yl]pyridin-2-yl}-4,4-difluoro-2-(4-fluorophenyl)butanamide] | 7.96 | < 4.70 | 7.70 | – |
| Cn1ccc2[nH]c(-c3ccnc(NC(=O)C(CC(F)F)c4ccc(F)cc4)c3)c(-c3ccc(F)cc3)c2c1=O (single isomer, unassigned; (-)) [Example 108, (−)-4,4-difluoro-2-(4-fluorophenyl)-N-{4-[3-(4-fluorophenyl)-5-methyl-4-oxo-4,5-dihydro-1H-pyrrolo[3,2-c]pyridin-2-yl]pyridin-2-yl}butanamide] | 8.03 | 6.18 | 7.82 | – |
| CC(C(=O)Nc1cc(-c2[nH]c3c(c2-c2ccc(F)cc2)C(=O)NC(C)(C)C3)ccn1)c1ccc(F)cc1 (single isomer, unassigned) [Example 95, 2-(4-fluorophenyl)-N-{4-[3-(4-fluorophenyl)-6,6-dimethyl-4-oxo-4,5,6,7-tetrahydro-1H-pyrrolo[3,2-c]pyridin-2-yl]pyridin-2-yl}propanamide] | 8.34 | < 4.70 | 7.85 | – |
| Cn1ccc2[nH]c(-c3ccnc(NC(=O)Cc4ccc(F)cc4)c3)c(-c3ccccn3)c2c1=O [Example 146, 2-(4-fluorophenyl)-N-{4-[5-methyl-4-oxo-3-(pyridin-2-yl)-4,5-dihydro-1H-pyrrolo[3,2-c]pyridin-2-yl]pyridin-2-yl}acetamide] | 8.36 | – | 8.48 | < 4.70 |
| CC(C(=O)Nc1cc(-c2[nH]c3ccn(C)c(=O)c3c2-c2ccsc2)ccn1)c1ccc(F)cc1 (racemic) [Example 131, 2-(4-fluorophenyl)-N-{4-[5-methyl-4-oxo-3-(3-thienyl)-4,5-dihydro-1H-pyrrolo[3,2-c]pyridin-2-yl]pyridin-2-yl}propanamide] | 8.00 | < 4.70 | 8.15 | – |
| CN1C(=O)c2c([nH]c(-c3ccnc(NC(=O)C(CC(F)F)c4ccc(F)cc4)c3)c2-c2ccccc2)CC12CC2 (racemic) [Example 80, 4,4-difluoro-2-(4-fluorophenyl)-N-[4-(5′-methyl-4′-oxo-3′-phenyl-1′,4′,5′,7′-tetrahydrospiro-[cyclopropane-1,6′-pyrrolo[3,2-c]pyridin]-2′-yl)pyridin-2-yl]butanamide] | 8.29 | < 4.70 | 8.33 | – |
| CC(C(=O)Nc1cc(-c2[nH]c3c(c2-c2ccc(F)cc2F)C(=O)N(C)CC3)ccn1)c1ccc(F)cc1 (single isomer, unassigned) [Example 71, N-{4-[3-(2,4-difluorophenyl)-5-methyl-4-oxo-4,5,6,7-tetrahydro-1H-pyrrolo[3,2-c]pyridin-2-yl]pyridin-2-yl}-2-(4-fluorophenyl)propanamide] | 8.68 | – | 8.77 | < 4.70 |
| CC(C(=O)Nc1cc(-c2[nH]c3c(c2-c2ccccc2F)C(=O)NC(C)(C)C3)ccn1)c1ccc(F)cc1 (stereo not drawn) [Example 87, 2-(4-fluorophenyl)-N-{4-[3-(2-fluorophenyl)-6,6-dimethyl-4-oxo-4,5,6,7-tetrahydro-1H-pyrrolo[3,2-c]pyridin-2-yl]pyridin-2-yl}propanamide] | 7.89 | – | 7.92 | < 4.70 |
| Cn1cc(CC(F)F)c2[nH]c(-c3ccnc(NC(=O)C(CC(F)F)c4ccc(F)cc4)c3)c(-c3ccccc3)c2c1=O (single isomer, unassigned) [Example 149, N-{4-[7-(2,2-difluoroethyl)-5-methyl-4-oxo-3-phenyl-4,5-dihydro-1H-pyrrolo[3,2-c]pyridin-2-yl]pyridin-2-yl}-4,4-difluoro-2-(4-fluorophenyl)butanamide] | 8.42 | < 4.70 | 8.43 | – |
| O=C(Nc1cc(-c2[nH]c3ccn(C4CC4)c(=O)c3c2-c2ccccn2)ccn1)C(CC(F)F)c1ccc(F)cc1 (racemic) [Example 160, (2RS)—N-{4-[5-cyclopropyl-4-oxo-3-(pyridin-2-yl)-4,5-dihydro-1H-pyrrolo[3,2-c]pyridin-2-yl]pyridin-2-yl}-4,4-difluoro-2-(4-fluorophenyl)butanamide] | 8.00 | < 4.70 | 8.06 | – |
| CN1CC(C)(C)c2[nH]c(-c3ccnc(NC(=O)C(CC(F)F)c4ccc(F)cc4)c3)c(-c3ccccc3)c2C1=O (single isomer, unassigned; (-)) [Example 151, (−)-4,4-difluoro-2-(4-fluorophenyl)-N-[4-(5,7,7-trimethyl-4-oxo-3-phenyl-4,5,6,7-tetrahydro-1H-pyrrolo[3,2-c]pyridin-2-yl)pyridin-2-yl]butanamide] | 7.72 | < 4.70 | 7.77 | – |
| CC(C(=O)Nc1cc(-c2[nH]c3ccn(C)c(=O)c3c2-c2cc(F)ccc2F)ccn1)c1ccc(F)cc1 (racemic) [Example 120, N-{4-[3-(2,5-difluorophenyl)-5-methyl-4-oxo-4,5-dihydro-1H-pyrrolo[3,2-c]pyridin-2-yl]pyridin-2-yl}-2-(4-fluorophenyl)propanamide] | 8.09 | < 4.70 | 8.19 | – |
| CC(C(=O)Nc1cc(-c2[nH]c3ccn(C)c(=O)c3c2-c2cccc(O)c2)ccn1)c1ccc(F)cc1 (racemic) [Example 113, 2-(4-fluorophenyl)-N-{4-[3-(3-hydroxyphenyl)-5-methyl-4-oxo-4,5-dihydro-1H-pyrrolo[3,2-c]pyridin-2-yl]pyridin-2-yl}propanamide] | 7.48 | < 4.70 | 7.49 | – |
| CC(C(=O)Nc1cc(-c2[nH]c3ccn(C)c(=O)c3c2-c2cc(F)c(F)c(F)c2)ccn1)c1ccc(F)cc1 (racemic) [Example 117, 2-(4-fluorophenyl)-N-{4-[5-methyl-4-oxo-3-(3,4,5-trifluorophenyl)-4,5-dihydro-1H-pyrrolo[3,2-c]pyridin-2-yl]pyridin-2-yl}propanamide] | 8.13 | < 4.70 | 8.33 | – |
| CC(C(=O)Nc1cc(-c2[nH]c3c(c2-c2ccc(F)cc2F)C(=O)N(C)CC3)ccn1)c1ccc(F)cc1 (racemic) [Example 69, N-{4-[3-(2,4-difluorophenyl)-5-methyl-4-oxo-4,5,6,7-tetrahydro-1H-pyrrolo[3,2-c]pyridin-2-yl]pyridin-2-yl}-2-(4-fluorophenyl)propanamide] | 8.55 | < 4.70 | 8.51 | – |
| Cn1cc(CC(F)F)c2[nH]c(-c3ccnc(NC(=O)C(CC(F)F)c4ccc(F)cc4)c3)c(-c3ccccc3)c2c1=O (racemic) [Example 147, (rac)-N-{4-[7-(2,2-difluoroethyl)-5-methyl-4-oxo-3-phenyl-4,5-dihydro-1H-pyrrolo[3,2-c]pyridin-2-yl]pyridin-2-yl}-4,4-difluoro-2-(4-fluorophenyl)butanamide] | 8.54 | < 4.70 | 8.37 | – |
| CC(C(=O)Nc1cc(-c2[nH]c3c(c2-c2ccc(F)cc2)C(=O)NC(C)(C)C3)ccn1)c1ccc(F)cc1 (racemic) [Example 94, 2-(4-fluorophenyl)-N-{4-[3-(4-fluorophenyl)-6,6-dimethyl-4-oxo-4,5,6,7-tetrahydro-1H-pyrrolo[3,2-c]pyridin-2-yl]pyridin-2-yl}propanamide] | 8.49 | < 4.70 | 8.52 | – |
| O=C(Nc1cc(-c2[nH]c3ccn(C4CC4)c(=O)c3c2-c2ccccc2)ccn1)C(CC(F)F)c1ccc(F)cc1 (single isomer, unassigned) [Example 158, (2R or S)—N-[4-(5-cyclopropyl-4-oxo-3-phenyl-4,5-dihydro-1H-pyrrolo[3,2-c]pyridin-2-yl)pyridin-2-yl]-4,4-difluoro-2-(4-fluorophenyl)butanamide] | 8.29 | – | 8.49 | < 4.70 |
| Cn1ccc2[nH]c(-c3ccnc(NC(=O)C(CC(F)F)c4ccc(F)cc4)c3)c(-c3ccc(Cl)s3)c2c1=O (racemic) [Example 133, N-{4-[3-(5-chloro-2-thienyl)-5-methyl-4-oxo-4,5-dihydro-1H-pyrrolo[3,2-c]pyridin-2-yl]pyridin-2-yl}-4,4-difluoro-2-(4-fluorophenyl)butanamide] | 8.32 | < 4.70 | 8.64 | – |
| Cc1ccccc1-c1c(-c2ccnc(NC(=O)C(C)c3ccc(F)cc3)c2)[nH]c2ccn(C)c(=O)c12 (racemic) [Example 111, 2-(4-fluorophenyl)-N-{4-[5-methyl-3-(2-methylphenyl)-4-oxo-4,5-dihydro-1H-pyrrolo[3,2-c]pyridin-2-yl]pyridin-2-yl}propanamide] | 7.66 | < 4.70 | 7.43 | – |
| Cn1ccc2[nH]c(-c3ccnc(NC(=O)C(CC(F)F)c4ccc(F)cc4)c3)c(-c3ccc(F)cc3)c2c1=O (racemic) [Example 107, 4,4-difluoro-2-(4-fluorophenyl)-N-{4-[3-(4-fluorophenyl)-5-methyl-4-oxo-4,5-dihydro-1H-pyrrolo[3,2-c]pyridin-2-yl]pyridin-2-yl}butanamide] | 8.36 | < 4.70 | 8.46 | – |
